By melting point is commonly meant the temperature of the solid-liquid transition.

Structures can show the parent of a compound that is named as a salt.

On to `CC(C)(C)c1ccc(CN2CCN(C(=O)Oc3ccc(Oc4ccc(C(F)(F)F)cn4)cc3)CC2)cc1` (as salt: hydrochloride), for which the melting point fell in the range of 274 to 275 °C.
Take `O=C(Oc1ccc(Oc2ccc(C(F)(F)F)cn2)cc1)N1CC2CC1CN2Cc1ccccc1` (stereo not shown): the melting point was in the range of 114 to 115 °C.
With `O=C(Oc1ccc(Oc2ccc(C(F)(F)F)cn2)cc1)N1CCN(CCc2ccncc2)CC1` (as salt: hydrochloride), the melting point is 268 to 271 °C (dec.).
Molecule `COc1cccc(CN2CCN(C(=O)Oc3ccc(Oc4ccc(C(F)(F)F)cn4)cc3)CC2)c1` (as salt: hydrochloride) returned a melting point of 214 to 215 °C.
In the case of `O=C(Oc1ccc(Oc2ccc(C(F)(F)F)cn2)cc1)N1CCN(Cc2c(F)cccc2Cl)CC1` (as salt: hydrochloride), the melting point was in the range of 204 to 205 °C.
`O=C(Oc1ccc(Oc2ccc(C(F)(F)F)cn2)cc1)N1CCN(c2ncccc2C(F)(F)F)CC1` returned a melting point of 131 to 132 °C.
In turn, `O=C(Oc1ccc(Oc2ccc(C(F)(F)F)cc2)cc1)N1CCN(C2CCCCC2)CC1` (as salt: hydrochloride) had a melting point of 290 to 291 °C.
The value for `COc1ccc(N2CCN(C(=O)Oc3ccc(Oc4ccc(C(F)(F)F)cn4)cc3)CC2)c(OC)c1` was 98 to 99 °C; that for `O=C(Oc1ccc(Oc2ccc(C(F)(F)F)cn2)cc1)N1CCN(c2ccccn2)CC1` (as salt: hydrochloride) was 247 to 248 °C; that for `O=C(Oc1ccc(Oc2ccc(C(F)(F)F)cn2)cc1)N1CCN(c2ccc(F)cc2)CC1` (as salt: hydrochloride) was 131 to 132 °C.
`O=C(Oc1ccc(Oc2ccc(C(F)(F)F)cn2)cc1)N1CCN(c2ncccn2)CC1` had a melting point of 120 to 121 °C.
Consider `O=C(Oc1ccc(Oc2ccc(C(F)(F)F)cn2)cc1)N1CCN(c2ccc(Cl)c(Cl)c2)CC1`, for which the melting point lay within 115 to 116 °C.
For `O=C(Oc1ccc(Oc2ccc(C(F)(F)F)cn2)cc1)N1CCN(c2ccccc2)CC1`, the melting point came to 117 °C.
For `O=C(Oc1ccc(Oc2ccc(C(F)(F)F)cn2)cc1)N1CCN(c2ccc3c(c2)OCO3)CC1`, the melting point fell in the range of 146 to 147 °C.
The value for `Cc1cc(C)nc(Sc2ccc(OC(=O)N3CCN(Cc4cccc(F)c4)CC3)cc2)n1` was 117 to 118 °C; that for `O=C(Oc1ccc(Oc2ccc(C(F)(F)F)cn2)cc1)N1CCN(CCc2cccs2)CC1` (as salt: hydrochloride) was 236 to 237 °C.
Molecule `O=C(CN1CCN(C(=O)Oc2ccc(Oc3ccc(C(F)(F)F)cn3)cc2)CC1)N1CCCC1` (as salt: hydrochloride) gave a melting point of 224 °C.
The value for `O=C(Oc1ccc(Oc2ccc(C(F)(F)F)cn2)cc1)N1CCN(Cc2ccccc2)CC1` (as salt: hydrochloride) was 229 to 231 °C; that for `O=C(Oc1ccc(Oc2ccc(C(F)(F)F)cn2)cc1)N1CCN(Cc2ccc3c(c2)OCO3)CC1` (as salt: hydrochloride) was 239 to 240 °C.
The value for `COc1cccc(N2CCN(C(=O)Oc3ccc(Oc4ccc(C(F)(F)F)cc4)cc3)CC2)c1` (as salt: hydrochloride) was 168 to 171 °C.
As to `COc1ccc(CN2CCN(C(=O)Oc3ccc(Oc4ccc(C(F)(F)F)cn4)cc3)CC2)cc1` (as salt: hydrochloride), the melting point fell in the range of 237 to 238 °C.
As for `O=C(Oc1ccc(Oc2ccc(C(F)(F)F)cn2)cc1)N1CCN(C2CCCC2)CC1` (as salt: hydrochloride), the melting point was 294 to 295 °C.
`Cc1ccc(CN2CCN(C(=O)Oc3ccc(Oc4ccc(C(F)(F)F)cc4)cc3)CC2)cc1` (as salt: hydrochloride) gave a melting point of 250 to 252 °C.
Next, `O=C(Oc1ccc(Oc2ccc(C(F)(F)F)cn2)cc1)N1CCN(Cc2ccc(F)cc2)CC1` (as salt: hydrochloride): 240 to 243 °C; `CN(C(=O)On1cccn1)c1ccccc1`: 63 to 67 °C.
